Assay results from US11000555B2, “Method for preparing a limax compound and therapeutic use thereof” (GUANGXI JIUFU BIOTECHNOLOGY CO., LTD, priority 2017, dated 2021).
Marks after values point to notes of the source that are not given here.

Experiments:
[1] = tested on: mice; assay: Morphine-induced hyperexcitability test of mice; format: in vivo, Kunming mice
[2] = tested on: mice; assay: Mouse spontaneous activity test; format: in vivo, Kunming mice
Experimental: Forty Kunming mice, half males and half females, were fasted for 12 h but free to drink water. The mice were randomly divided into four groups: a blank control group, a low does Compound group (0.4 g/kg, ig), a high dose Compound group (0.8 g/kg, ig) and a positive drug control group (Estazolam, 2 mg/kg). The mice were placed into the YLS-1A multifunctional recorder for spontaneous activities of small animals. After 5 minutes of adaptation, the number of the mice's spontaneous activities before administration were recorded, and the recording lasted for 10 minutes. The room was kept quiet during recording, at a room temperature of 20-24° C. After this, each group of mice was administered according to the above doses, and the number of spontaneous activities within 10 min were recorded 45 min later. The blank control group was given the same volume of normal saline (ig).

[3] = Solubility; format: physicochemical
[4] = tested on: mice; assay: Physical dependence test: induced withdrawal test for the mice; details: mouse, in vivo
Experimental: The daily doses were 25, 50, 75, 100, 125, 150 mg/kg according to the dose increasing principle, increased day by day, reached 150 mg/kg on day 6 which was adopted the same on day 7. The compound group was administered (ig) twice daily (8:00 am, 8:00 pm) at daily doses of 0.6, 1.2, 1.8, 2.4, 3.0, 3.6 g/kg. The dose increased every day from 0.6 g/kg to 3.6 g/kg on day 6 which was adopted the same on day 7. The negative control group was given (ig) the same volume of vegetable oil every day at the same time and for the same times as the compound group. On day 7, naloxone (8 mg/kg, ip) was given to each group of mice to induce withdrawal. The jump reaction within 30 min and weight change one hour before and after inducement were observed. Weight loss value=weight before inducement−weight after inducement.

[5] = tested on: mice; assay: Hot plate test of analgesic effect; format: in vivo, Kunming mice; details: for Pain threshold / Pain threshold before administration: hot plate 55° C.; for Pain threshold before administration: base line
Experimental: Kunming mice, female, were selected. And a selection among them was conducted prior to the test. The hot plate was adjusted to 55° C.±0.5° C., the female mice were placed on the hot plate, and the duration (in seconds) required from placing the mice on the hot plate until the mice licked their feet as the normal pain threshold of the mice. All those who licked their feet within 5 s or after 30 s and jumped were abandoned. Forty qualified mice were selected and randomly divided into 4 groups: a blank control group, a low dose Compound group, a high dose Compound group, and a positive control group, 10 mice per group. The normal pain threshold of each mouse was measured repeatedly, and the average of two measurements was taken as the pre-administration pain threshold of the mouse. Each group was then administered (at doses and by delivery routes as above), 0.2 ml per 10 g body weight. The pain threshold of each group was measured 60 min and 120 min after administration. If a mouse remained unresponsive for more than 60 seconds on the hot plate, its pain threshold was calculated as 60 seconds.

[6] = tested on: morphine-dependent rats; assay: Therapeutic effect on naloxone-induced withdrawal symptoms of morphine-dependent rats; format: in vivo, Sprague-Dawley (SD) rats; details: for Scores of induced withdrawal symptoms of rats: naloxone 5.0 mg/kg ip, 30 min
Experimental: The administration continued for 3 days for each group of rats. Rats were free to drink and eat. Naloxone (5.0 mg/kg, ip) was given 45 min after administrations on d1 and d3 during the treatment to induce withdrawal symptoms, and withdrawal reaction in 30 min and body weights one hour before and after the inducement were observed.
Times of shaking like a wet dog, stereotyped acts, erecting and jumping in 30 minutes were directly scored; symptoms such as ptosis, irritability, tooth tremor, chewing, pilus erection, abnormal posture and rapid respiration were scored every 5 minutes; symptoms such as diarrhea, lacrimation, salivation and rhinorrhea were scored every 30 minutes. The sum of all scores was the total score of the withdrawal reaction. See Appendix Table 2.

[7] = tested on: mice; assay: Oral acute toxicity test of mice (maximum dose method); format: in vivo, Kunming mice; details: for Weight after dosing / Weight change: 14 days observation; for Weight before dosing: test group
Experimental: The test group was given 10% the compound, 0.3 ml/10 g per dose, and the control group was given the same volume of vegetable oil. Each group was administered (ig) twice a day at 8:00 and 18:00, respectively, and fasting was completed three hours after the administration (ig). All the mice received the same volume of 0.3 ml/10 g per dose, amounting to 6 g/kg BW over 24 hours. The mice were given free access to water and food after administration. The body weight, food intake, water intake, general physiological indicators, behaviors and activities, psychological status and survival status were recorded for 14 days in consecutive, 3 times a day, after several times of observation within the 24 hours that followed the administration.

[8] = Before administration, high dose group
[9] = Before administration, low dose group
[10] = Female, 6 g/kg BW over 24 hours ig
[11] = Male, 6 g/kg BW over 24 hours ig

With `CC1(C)O[C@H]2CC[C@@]3(C)[C@@H]([C@@H](O)[C@H](O)[C@@H]3[C@@](C)(O)CC[C@@H]3OC(C)(C)[C@H]4CC[C@]3(C)O4)[C@]2(C)CC[C@H]1O` [the compound, limaxol A] the “Effect on excitability induced by morphine” value ([1]; 0.4, 0.8 g/kg, ig) was “inhibit the increase of excitability induced by morphine and amphetamine”, the “Number of activities, morphine-induced excitability” value (“Number of activities” below) ([1]; After administration, high dose 0.8 g/kg ig, morphine 10 mg/kg) was 112.7 ± 23.04**^Δ▴▴ Times per min and the “Number of activities” value ([1]; After administration, low dose 0.4 g/kg ig, morphine 10 mg/kg) was 102.0 ± 46.29**^Δ▴ Times per min. The “Number of activities” value [1, 8] was 185.4 ± 36.93 Times per min, the “Number of activities” value [1, 9] was 191.5 ± 35.53 Times per min and the “Effect on spontaneous activity of mice” value ([2]; 0.4, 0.8 g/kg, ig) was “significantly reduce the spontaneous activity of mice”. For the same molecule, the “Number of spontaneous activities” value ([2]; After administration (45 min), high dose 0.8 g/kg ig) was 84.8 ± 31.69*^Δ▴ per 10 min, the “Number of spontaneous activities” value ([2]; After administration (45 min), low dose 0.4 g/kg ig) was 104.6 ± 42.12^Δ▴▴ per 10 min and the “Number of spontaneous activities” value [2, 8] was 145.5 ± 82.57 per 10 min. The “Number of spontaneous activities” value [2, 9] was 165.5 ± 69.20 per 10 min, the solubility ([3]; in acid and alkali) was “insoluble” and the solubility ([3]; in ethanol, ethyl acetate, trichloromethane (hot)) was “soluble”. The solubility ([3]; in methanol, acetone) was “easily soluble”, the solubility ([3]; in trichloromethane (cold)) was “slightly soluble” and the solubility ([3]; in water) was “insoluble”. For the same molecule, the “Behaviour of mice after administration” value [4] was “quiet without tail erecting reaction or excitatory movement”, the “Withdrawal symptoms after administration of the compound, mice” value [4] was “no obvious withdrawal symptoms” and the Pain threshold ([5]; 60 min, high dose 0.8 g/kg ig) was 27.0 ± 11.32 s. The Pain threshold ([5]; 60 min, low dose 0.4 g/kg ig) was 25.4 ± 10.10 s, the Pain threshold ([5]; 120 min, high dose 0.8 g/kg ig) was 25.9 ± 12.52 s and the Pain threshold ([5]; 120 min, low dose 0.4 g/kg ig) was 29.3 ± 13.41 s. For the same molecule, the “Pain threshold before administration” value ([5]; high dose group) was 24.3 ± 5.51 s, the “Pain threshold before administration” value ([5]; low dose group) was 23.7 ± 4.95 s and the “Analgesic effect, hot plate test” value ([5]; single administration 0.4, 0.8 g/kg, ig) was “no obvious analgesic effect”. The “Body Weight Change (Body Weight before Inducement − Body Weight after Inducement)” value (from here on “Body Weight Change”) ([6]; d 1, high dose 0.6 g/kg ig) was 14.7 ± 4.08 g, the “Scores of induced withdrawal symptoms of rats” value (“Scores” for short) ([6]; d 1, high dose 0.6 g/kg ig) was 53.8 ± 16.23 and the “Body Weight Change” value ([6]; d 1, low dose 0.3 g/kg ig) was 11.8 ± 3.25 g. The “Scores” value ([6]; d 1, low dose 0.3 g/kg ig) was 74.9 ± 42.03, the “Body Weight Change” value ([6]; d 3, high dose 0.6 g/kg ig) was 1.9 ± 2.13 g and the “Scores” value ([6]; d 3, high dose 0.6 g/kg ig) was 22.1 ± 10.90. For the same molecule, the “Body Weight Change” value ([6]; d 3, low dose 0.3 g/kg ig) was 4.5 ± 2.59 g, the “Scores” value ([6]; d 3, low dose 0.3 g/kg ig) was 25.5 ± 12.26 and the “Effect on changes of the body weight of rats” value ([6]; two doses (0.3, 0.6 g/kg) ig) was “no significant effect”. The “Effect on withdrawal symptoms of morphine-dependent rats” value ([6]; two doses (0.3, 0.6 g/kg) ig) was “partially control the withdrawal symptoms”, the “Toxic reaction” value ([7]; 6 g/kg BW over 24 hours ig, 14 days of observation) was “no toxic reaction occurred” and the Weight after dosing [7, 10] was 24.99 ± 1.59 g. For the same molecule, the Weight change [7, 10] was 4.06 ± 2.34 g, the Weight before dosing ([7]; Female) was 20.93 ± 1.61 g and the Weight after dosing [7, 11] was 26.60 ± 0.87 g. For the same molecule, the Weight change [7, 11] was 6.13 ± 1.46 g, the Weight before dosing ([7]; Male) was 20.73 ± 1.79 g and the “Visual observation of heart, liver, spleen, lung, kidney” value ([7]; after putting to death, 14 days) was “no abnormality was found”. The “Maximum dose as multiple of the daily dose per the same body weight for a human adult” value ([7]; human adult dose 0.02 g/kg) was 300 times, the “Maximum dose given the mice” value ([7]; ig, twice within 24 hours, no death) was 6000 mg/kg and the LD50 ([7]; mouse, in vivo, po) was “could not be detected”.
